Source: paper PMC10449418, “Adapting antibacterial display to identify serum-active macrocyclic peptide antibiotics” (PNAS Nexus, 2023)
No end group written: not given here.

Key:
E. coli 25922 [1] = assay: MBC in 100% human serum (HS); assay type: cell-based, Escherichia coli
Text: Minimum inhibitory concentration (MIC) and minimum bactericidal concentration (MBC) assays are standard methods used to first examine antimicrobial potential. These assays are often performed against lab strains of bacteria grown in Mueller–Hinton (MH) media which is not representative of conditions found in the human body during infection. […] W3110 is a K12-derived strain and cannot grow in HS and lacks O-antigen on its cell surface in contrast to 25922. MBCs were used instead of MICs because HS was opaque, making bacterial growth difficult to observe by sight. We chose three cationic AMPs previously discovered using SLAY and four natural cationic AMPs, each with α-helical or β-hairpin secondary structure ([18–24]) (Table S1).

E. coli 25922 [2] = assay: NPN outer membrane disruption assay; assay type: cell-based, Escherichia coli; conditions: 30 min of treatment, PBS, various concentrations, n = 3
Text: (§1) First, we performed two fluorescent membrane disruption assays using 1-N-phenylnaphthylamine (NPN) and propidium iodide (PI). Normally the outer membrane excludes hydrophobic molecules such as NPN, but when damaged, NPN can bind hydrophobic fatty acids within the membrane and fluoresce. PI fluoresces upon DNA binding but can only gain access to the cytoplasm if both the outer and inner membranes have been permeabilized. Antibiotics tested retained antimicrobial activity under the assay conditions used (Fig. S3A).
A culture of E. coli 25922 was grown overnight in liquid media at 37°C. The following day, it was back diluted 1:25 in LB media and grown at 37°C until an OD600 of 0.5. The culture was then pelleted at 1,000 g, washed once with PBS, and resuspended to a final concentration of OD600 0.5. […] Each sample was loaded in triplicate into a 96-well optical-bottom plate and serially diluted two-fold with final volumes of 50 µl in each well. Fifty microliters of the 40 µM NPN was then added to each well, followed by 100 µl of the bacterial cell suspension. After 30 min, the plate was transferred to a BioTek Synergy LX multimode reader for fluorescent measurements. Triplicate samples were normalized to nontreated wells and presented as a mean ± 1 SD (n = 3).

E. coli 25922 [3] = assay: PI uptake (outer and inner membrane permeabilization) assay; assay type: cell-based, Escherichia coli; conditions: 30 min of treatment, PBS + 50 mM glucose, 37°C, n = 3
Text: as §1
PI uptake was measured for E. coli 25922 as previously described ([20]). Briefly, single colonies from overnight growth on LB were inoculated into MH broth and grown to mid-log phase. Cells were then washed twice with PBS + 50 mM glucose and resuspended to an OD = 0.1 in PBS + 50 mM glucose. PI was added at a concentration of 10 µg/ml, and 50 µl of the PI cell mixture was quickly added to a preprepared 96-well plate (NUNC black-walled clear bottom plate) that contained 50 µl of various peptide concentrations. The plate was then allowed to incubate for 30 min in the dark at 37°C and was then read using the Biotek Synergy LX plate reader with the fluorescence red filter cube. Triplicate samples were normalized to nontreated wells and presented as a mean ± 1 SD (n = 3).

E. coli 25922 [4] = assay: MIC (growth inhibition) in MH media; assay type: cell-based, Escherichia coli; conditions: 37°C, 18–24 h, examined by eye, median of three replicates
G. mellonella larvae = assay: LD50 in G. mellonella larvae; assay type: in vivo, Galleria mellonella; conditions: single injection of a 100-mg/kg dose, death after 4 days, n = 10
Method: Live G. mellonella larvae were purchased from DBDPet. Larvae appearing fully healthy (no apparent melanization) and weighing between 200 and 300 mg were used for survival assays. Larvae were first injected into their second left proleg with 10 µl of PBS or PBS containing 1 × 10^6E. coli 25922 cells grown to an OD of 0.5 and washed in PBS. Injections were performed using a Hamilton 250-µl pipet equipped with an autodispenser and 30-gauge BD needle. […] Larvae groups were then incubated at 37°C for 72 h and observed for death. Larvae were determined to be dead if they were unable to right themselves after being placed on their back. Significance was determined by comparing Kaplan–Meier survival curves to untreated using a log-rank test (n ≥ 13 per sample).

Compound	serum activity (MBC in HS), in words (E. coli 25922 [1])	NPN fluorescence (outer membrane permeation) (E. coli 25922 [2])	PI uptake (outer and inner membrane permeabilization) (E. coli 25922 [3])	Antibiotic activity against E. coli 25922: MIC (E. coli 25922 [4])	LD50 for G. mellonella larvae (G. mellonella larvae)
KWCFRVCYRGICYRRCR-NH2 (disulfide (positions not given here)) [Tachyplesin-1, natural β-AMP]	retained the most activity in HS relative to MH				
Kanamycin		no NPN fluorescence or PI uptake	no NPN fluorescence or PI uptake	4 µg/mL	
CC(C)C[C@H](NC(=O)[C@H](CCCNC(=N)N)NC(=O)CNC(=O)CNC(=O)[C@@H](N)CCCNC(=N)N)C(=O)N[C@H]1CSSC[C@@H](C(=O)N[C@H](C(=O)NCC(=O)N[C@@H](CCCNC(=N)N)C(N)=O)C(C)C)NC(=O)[C@H](C(C)C)NC(=O)[C@@H]2CSSC[C@H](NC(=O)[C@H](Cc3ccc(O)cc3)NC1=O)C(=O)N[C@@H](CCCNC(=N)N)C(=O)N[C@@H](CCCNC(=N)N)C(=O)N[C@@H](CCCNC(=N)N)C(=O)N[C@@H](Cc1ccccc1)C(=O)N2 [Protegrin-1]	retained the most activity in HS relative to MH	strong fluorescence of both NPN and PI	strong fluorescence of both NPN and PI		over 100 mg/kg
